{"source": "patent US8912121B2", "about": "“Herbicidal compositions comprising 4-amino-3-chloro-5-fluoro-6-(4-chloro-2-fluoro-3-methoxyphenyl)pyridine-2-carboxylic acid or a derivative thereof and certain PS II inhibitors” (Dow Agrosciences LLC, priority 2012, dated 2014)", "key": {"[1]": {"system": "CHEAL (Chenopodium album, common lambsquarters)", "assay": "Postemergence herbicidal activity of mixtures in cereal crops, greenhouse", "format": "in vivo, Chenopodium album L.", "method": "(§1) Seeds of the desired test plant species were planted in Sun Gro MetroMix® 306 planting mixture, which typically has a pH of 6.0 to 6.8 and an organic matter content of about 30 percent, in plastic pots with a surface area of 103.2 square centimeters (cm^2). When required to ensure good germination and healthy plants, a fungicide treatment and/or other chemical or physical treatment was applied. The plants were grown for 7-36 days in a greenhouse with an approximate 14 hour photoperiod which was maintained at about 18° C. during the day and about 17° C. during the night. Nutrients and water were added on a regular basis and supplemental lighting was provided with overhead metal halide 1000-Watt lamps as necessary. The plants were employed for testing when they reached the second or third true leaf stage.\n(§2) Treatments consisted of the benzyl ester of 4-amino-3-chloro-5-fluoro-6-(4-chloro-2-fluoro-3-methoxy-phenyl)pyridine-2-carboxylic acid (Compound A), formulated as an SC, a second cereal herbicide alone and then both in combination.\n(§3) Other herbicidal components were applied on an active ingredient basis and included PSII-inhibiting herbicides.\n(§4) Measured aliquots of benzyl ester of 4-amino-3-chloro-5-fluoro-6-(4-chloro-2-fluoro-3-methoxy-phenyl)pyridine-2-carboxylic acid (Compound A) were placed in 25 milliliter (mL) glass vials and diluted in a volume of 1.25% (v/v) Agri-Dex® crop oil concentrate to obtain stock solutions. Compound requirements are based upon a 12 mL application volume at a rate of 187 liters per hectare (L/ha). Spray solutions of the second cereal herbicide and experimental compound mixtures were prepared by adding the stock solutions to the appropriate amount of dilution solution to form 12 mL spray solution with active ingredients in two- and three-way combinations. Formulated compounds were applied to the plant material with an overhead Mandel track sprayer equipped with an 8002E nozzle calibrated to deliver 187 L/ha over an application area of 0.503 square meters (m^2) at a spray height of 18 inches (46 cm) above average plant canopy. Control plants were sprayed in the same manner with the solvent blank.\n(§5) The treated plants and control plants were placed in a greenhouse as described above and watered by sub-irrigation to prevent wash-off of the test compounds. After 20-22 days, the condition of the test plants as compared with that of the control plants was determined visually and scored on a scale of 0 to 100 percent where 0 corresponds to no injury and 100 corresponds to complete kill.\n(§6) Colby's equation was used to determine the herbicidal effects expected from the mixtures (Colby, S. R. 1967. Calculation of the synergistic and antagonistic response of herbicide combinations. Weeds 15:20-22). […]"}, "[2]": {"system": "FIMMI (Fimbristylis miliacea, globe fringerush)", "assay": "In-water applied mixtures, transplanted paddy rice, greenhouse", "format": "in vivo, Fimbristylis miliacea (L.) Vahl", "conditions": "19 DAA", "method": "Weed seeds or nutlets of the desired test plant species were planted in puddled soil (mud) prepared by mixing a shredded, non-sterilized mineral soil (50.5 percent silt, 25.5 percent clay, and 24 percent sand, with a pH of about 7.6 and an organic matter content of about 2.9 percent) and water at a 1:1 volumetric ratio. The prepared mud was dispensed in 365 mL aliquots into 16-ounce (oz.) non-perforated plastic pots with a surface area of 86.59 square centimeters (cm^2) leaving a headspace of 3 centimeters (cm) in each pot Mud was allowed to dry overnight prior to planting or transplanting. Rice seeds were planted in Sun Gro MetroMix® 306 planting mixture, which typically has a pH of 6.0 to 6.8 and an organic matter content of about 30 percent, in plastic plug trays. Seedlings at the second or third leaf stage of growth were transplanted into 840 mL of mud contained in 32-oz. non-perforated plastic pots with a surface area of 86.59 cm^2 4 days prior to herbicide application. The paddy was created by filling the headspace of the pots with 2.5 to 3 cm of water. When required to ensure good germination and healthy plants, a fungicide treatment and/or other chemical or physical treatment was applied. The plants were grown for 4-22 days in a greenhouse with an approximate 14 h photoperiod which was maintained at about 29° C during the day and 26° C. during the night. Nutrients were added as Osmocote® (19:6:12, N:P:K+ minor nutrients) at 2 g per 16-oz. pot and 4 g per 32-oz. pot. Water was added on a regular basis to maintain the paddy flood, and supplemental lighting was provided with overhead metal halide 1000-Watt lamps as necessary. The plants were employed for testing when they reached the first through fourth true leaf stage.\nTreatments consisted of the acid or esters of 4-amino-3-chloro-5-fluoro-6-(4-chloro-2-fluoro-3-methoxy-phenyl)pyridine-2-carboxylic acid (compound A) each formulated as an SC (suspension concentrate) and various herbicidal components alone and in combination. Forms of compound A were applied on an acid equivalent basis.\nOther herbicidal components were applied on an active ingredient basis and included photosystem II (PSII)-inhibits propanil formulated as […] bentazon-sodium formulated as Basagran®, and simetryne (technical grade material).\nTreatment requirements for each compound or herbicidal component were calculated based upon the rates being tested, the concentration of active ingredient or acid equivalent in the formulation, an application volume of 2 mL per component per pot, and an application area of 86.59 cm^2 per pot.\nFor formulated compounds, a measured amount was placed in an individual 100 or 200 mL glass vial and was dissolved in a volume of 1.25% (v/v) Agri-Dex® crop oil concentrate to obtain application solutions.\nFor technical grade compounds, a weighed amount was placed in an individual 100 to 200 mL glass vial and was dissolved in a volume of acetone to obtain concentrated stock solutions. […]\nThe treated plants and control plants were placed in a greenhouse as described above and water was added as needed to maintain a paddy flood. After approximately 3 weeks the condition of the test plants as compared with that of the untreated plants was determined visually and scored on a scale of 0 to 100 percent where 0 corresponds to no injury or growth inhibition and 100 corresponds to complete kill. […]"}, "[3]": {"system": "AMARE (Amaranthus retroflexus, redroot pigweed)", "assay": "Postemergence herbicidal activity of mixtures in cereal crops, greenhouse", "format": "in vivo, Amaranthus retroflexus L.", "method": "as §1, §2, §3, §4, §5, §6"}, "[4]": {"conditions": "Compound A Benzyl Ester 2.5 g ai/ha"}, "[5]": {"conditions": "Compound A Benzyl Ester 5 g ai/ha"}}, "data": [{"smiles": "COc1c(Cl)ccc(-c2nc(C(=O)OCc3ccccc3)c(Cl)c(N)c2F)c1F", "note": "[Compound A Benzyl Ester, benzyl ester of 4-amino-3-chloro-5-fluoro-6-(4-chloro-2-fluoro-3-methoxy-phenyl)pyridine-2-carboxylic acid]", "values": [{"measurement": "Visual Weed Control (%)-21 DAA CHEAL Obs", "setting": "[1]; [4]", "result": 50, "unit": "%"}, {"measurement": "Visual Weed Control (%)-21 DAA CHEAL Obs", "setting": "[1]; [5]", "result": 58, "unit": "%"}, {"measurement": "Visual Weed Control (%) Obs", "setting": "[2]; 8 g ae/ha", "result": 0, "unit": "%"}, {"measurement": "Visual Weed Control (%) Obs", "setting": "[2]; 16 g ae/ha", "result": 0, "unit": "%"}, {"measurement": "Visual Weed Control (%) Obs", "setting": "[2]; 32 g ae/ha", "result": 85, "unit": "%"}, {"measurement": "Visual Weed Control (%) - 21 DAA AMARE Obs", "setting": "[3]; [4]", "result": 20, "unit": "%"}, {"measurement": "Visual Weed Control (%) - 21 DAA AMARE Obs", "setting": "[3]; [5]", "result": 38, "unit": "%"}]}]}
